{"source": "patent US20250120975A1", "about": "“INTEGRIN INHIBITORS FOR TREATMENT OF PRIMARY SCLEROSING CHOLANGITIS” (Pliant Therapeutics, Inc., priority 2023, published 2025)", "key": {"[1]": {"tested_on": "subjects with PSC and suspected liver fibrosis", "experiment": "Phase 2a INTEGRIS-PSC: PRO-C3 (collagen synthesis)", "type": "in vivo, human", "text": "In Parts 1 and 2, plasma, serum, and urine biomarker samples were obtained at predetermined times as indicated in the Schedule of Events (see Table B-4). In Part 3, plasma and serum biomarker samples were obtained at predetermined times as indicated in the Schedule of Events (see Table B-5 and Table B-6). These samples were used to measure specific proteins, nucleotides and/or metabolites that were elevated in subjects with fibrosis, and/or pharmacodynamic markers that could change with inhibition of integrins αVβ6 and αVβ1. The samples were also used to perform exploratory investigations using metabolomic or proteomic methods for use in future studies in subjects with fibrotic diseases.\n(§1) Absolute and relative changes from Baseline in liver fibrosis biomarkers (including PRO-C3 and ELF) and in ALP are presented in numerical and graphical forms by treatment and dose utilizing data from the timepoints specified in the Schedule of Events. Changes from Baseline to Week 12(Parts 1 and 2) and Week 24 (Part 3) in magnetic resonance (MR)-based liver imaging are also evaluated, as well as changes in PROs."}, "[2]": {"tested_on": "PCLivS from human liver tissue with biliary fibrosis (PSC, PBC)", "experiment": "Fibrotic gene expression (NanoString) in precision cut liver slices", "type": "cell-based", "conditions": "for % Inhibition of expression COL1A1 / % Inhibition of expression COL1A2: PCLivS from a single PSC liver", "text": "A human liver tissue explant was obtained from a PSC patient undergoing liver transplantation.\nSlicing: To slice, 8-mm cores were punctured from the liver tissue and were stored in ice cold UW solution until slicing. A tissue core was glued onto the center of the plunger of the specimen syringe for slicing. The core was embedded in 2% low gelling temperature agarose made up in milliQ water. The thickness of the slice was adjusted to 400 μm and was sectioned into oxygenated KHB occurs. The slices were stored in cold UW solution on ice until all slices were cut.\nCulture: The compounds were diluted to 1000× concentration in 100% DMSO. The compounds were diluted in a medium with a final concentration of 0.1% DMSO before transferring the slices and making a fresh medium for each 24-H medium change. Before being used for slice culture, all media was equilibrated in the incubator at culture conditions for 30 minutes. After all slices have been cut, all slices were transferred to wells prefilled with oxygenated, warmed, and equilibrated WEGG. The slices were incubated for 1 hour in the incubator at a temperature of 37° C., 5% CO2, 80% 02, 100% humidity on shaking platform set at 55 rpm. After this one-hour recovery, the slices were transferred to wells prefilled with oxygenated, warmed, and equilibrated WEGG with appropriate treatments. The slices were distributed into the treatment groups to account for inter-core variability. The slices were cultured at 37° C., 80% 02, 5% CO2, 100% humidity on shaking platform set at 55 rpm. The medium was changed after 24 hours.\nThe slices were removed from the well and rinsed in PBS. Excess liquid was removed. The slices were transferred to a microtube pooling all three slices from the same treatment into one tube. The pooled slices were snap frozen in liquid nitrogen and placed on dry ice until all samples were collected and then transferred to −80° C. for storage. For media collection, 140 μL of medium was pooled from each well within a treatment group and transferred to a 96-well Axygen plate. After sealing the plate, spin down occurred at 4000×g for 10 minutes at 4° C. Then, 130 μL aliquots were transferred into 3 new plates. The plates were sealed and stored at −80° C.\n(S)-4-((2-methoxyethyl)(4-(5,6,7,8-tetrahydro-1,8-naphthyridin-2-yl)butyl)amino)-2-(quinazolin-4-ylamino)butanoic acid was tested at 100 nM, 1 μM, and 10 μM. OCA, an FXR agonist in clinical trials for PSC, was used at 250 nM and 2.5 μM reflecting Cmax levels observed in clinical trials. An ALK5 inhibitor (R268712) was used at 1 μM (400 times its IC50 per manufacturer) to target max inhibition of the ALK5 receptor.\nMethods: Lysis buffer was made with one third RLT buffer in RNAse-free water and 2 mg/mL proteinase K. About 100-200 μL lysis buffer was added to each pool of 3 liver slices. Samples were incubated at 55° C. in the bead bath for 2 hours and 45 minutes, vortexing every 30 minute. Samples were centrifuged and the supernatant aliquoted in 15 μL aliquots into 96-well Axygen plates.\nMethods: nCounter PlexSet was run according to standard protocol. Briefly, probe A and probe B were diluted with TE-tween to Working Probe Pools and mixed with hybridization buffer. This master mix was added to the A-H PlexSets and mixed. Each PlexSet was added across a row to a 96 well qPCR plate and proteinase K was added to a final concentration of 2 mg/mL. Lysate from samples was added to appropriate wells and mixed. The plate was sealed, spun, and placed in thermocycler at 67° C. for 16 hours. Hybridized samples were pooled down columns and 35 μL were loaded on a Sprint Cartridge and run on the nCounter Sprint. Data analysis was performed in nSolver using background thresholding based on negative controls, positive control normalization, reference sample normalization and normalization to housekeeping genes (GUSB, HPRT1, POLR1B, RPLP0, SRFS4, and/or UBC). […]"}, "[3]": {"tested_on": "subjects with PSC and suspected liver fibrosis", "experiment": "Phase 2a INTEGRIS-PSC: liver biochemistry (ALP, ALT, AST, bilirubin)", "type": "in vivo, human", "procedure": "Fasting blood and urine specimens for safety laboratory assessments were or will be obtained at the time points specified in the Schedule of Events (see Table B-4, Table B-5, and Table B-6). Specimens are obtained after at least an 8-hour fast. Subjects are in a seated or supine position during blood collection. Creatinine clearance is calculated using the Cockcroft-Gault equation.\nas §1"}, "[4]": {"conditions": "relative to inhibition with high dose ALK5 inhibitor, PCLivS from 10 livers"}}}
{"compound": "COCCN(CCCCc1ccc2c(n1)NCCC2)CC[C@H](Nc1ncnc2ccccc12)C(=O)O", "note": "[Bexotegrast, (S)-4-((2-methoxyethyl)(4-(5,6,7,8-tetrahydro-1,8-naphthyridin-2-yl)butyl)amino)-2-(quinazolin-4-ylamino)butanoic acid]", "values": [{"measurement": "PRO-C3, difference to placebo", "setting": "[1]; 40 mg (p<0.01) and 160 mg (p<0.05), Week 12, Example B-3", "value": "statistically significant differences from placebo"}, {"measurement": "PRO-C3 levels relative to placebo", "setting": "[1]; 320 mg, Week 12, Example B-4", "value": "reduction"}, {"measurement": "collagen synthesis (PRO-C3) relative to placebo", "setting": "[1]; all doses (40, 80, 160 mg), Week 12, Example B-3", "value": "reduced"}, {"measurement": "PRO-C3 relative to the placebo", "setting": "[1]; all doses, statistical significance at Week 12 for 40 mg, 160 mg and pooled groups, Example B-4", "value": "reduced"}, {"measurement": "% Inhibition of expression COL1A1", "setting": "[2]; 100 nM, 2 days", "value": "−6", "unit": "%"}, {"measurement": "% Inhibition of expression COL1A2", "setting": "[2]; 100 nM, 2 days", "value": "−8", "unit": "%"}, {"measurement": "% Inhibition of expression COL1A1", "setting": "[2]; 1 μM, 2 days", "value": 27, "unit": "%"}, {"measurement": "% Inhibition of expression COL1A2", "setting": "[2]; 1 μM, 2 days", "value": 9, "unit": "%"}, {"measurement": "% Inhibition of expression COL1A1", "setting": "[2]; 10 μM, 2 days", "value": 61, "unit": "%"}, {"measurement": "% Inhibition of expression COL1A2", "setting": "[2]; 10 μM, 2 days", "value": 41, "unit": "%"}, {"measurement": "dose dependence of COLIA1 and COLIA2 mRNA expression", "setting": "[2]; PCLivS from human PSC liver tissue, 2 days", "value": "reduced in a dose dependent manner"}, {"measurement": "inhibition of the TGF-β-driven COL3A1 expression", "setting": "[2]; [4]", "value": "≤ 41", "unit": "%"}, {"measurement": "inhibition of the TGF-β-driven COLIA1 expression", "setting": "[2]; [4]", "value": "up to 28%"}, {"measurement": "inhibition of the TGF-β-driven TGF-81 expression", "setting": "[2]; [4]", "value": "≤ 48", "unit": "%"}, {"measurement": "trend down in overall expression of COLIA1", "setting": "[2]; ≥1 μM, PCLivS from 10 livers with biliary fibrosis (6 PSC, 4 PBC), 2 days", "value": 22, "unit": "%"}, {"measurement": "ALP, all participants", "setting": "[3]; 320 mg, over 24 weeks, compared to increased levels on placebo, Example B-5", "value": "statistically significant reduction"}, {"measurement": "ALP, patients with elevated baseline ALP values", "setting": "[3]; 320 mg, over 24 weeks, Example B-5", "value": "greater reductions"}, {"measurement": "ALP relative to placebo", "setting": "[3]; 40, 80, 160 mg, Week 12, Example B-3", "value": "dose-dependent trend for reduction in ALP"}, {"measurement": "liver chemistry levels (ALT, AST, total and direct bilirubin)", "setting": "[3]; all doses versus increases in placebo, Week 12, Example B-3", "value": "stabilization of liver chemistry levels"}, {"measurement": "ALP relative to the placebo", "setting": "[3]; subgroup with elevated ALP (>ULN) at Baseline, Week 12, Example B-4", "value": "stabilized"}]}
